Experimental data reported in patent US10828305B2 (SHANGHAI PHARMACEUTICALS HOLDING CO., LTD., priority 2016, dated 2020).

How the values were obtained:
N87 = assay: Proliferation inhibition assay in vitro, N87 (CellTiter-Glo); assay type: cell-based; details: Homo sapiens; 72 hours; read-out: IC50(nM) cell N87
In short: (§1)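 Cells were seeded at 8.8×10^4 cells/mL for BT-474 or 6.6×10^4 cells/mL for N87 and grown overnight. Compound was added at 9 concentrations in duplicate for 72 h at 37 °C, 5% CO2. Viability was measured by CellTiter-Glo.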

BT-474 = assay: Proliferation inhibition assay in vitro, BT-474 (CellTiter-Glo); assay type: cell-based; details: Homo sapiens, 72 hours, read-out: IC50(nM) cell BT-474
In short: as §1

ErbB2 kinase = ErbB2 kinase (Homo sapiens, UniProt P04626); assay: Enzymatic experiment on ErbB2 (HTRF kinEASE-TK); assay type: biochemical; details: ATP 4 μM; read-out: Kinase IC50 (nM) in vitro ErbB2
Sequence of ErbB2 kinase (P04626 23-1255): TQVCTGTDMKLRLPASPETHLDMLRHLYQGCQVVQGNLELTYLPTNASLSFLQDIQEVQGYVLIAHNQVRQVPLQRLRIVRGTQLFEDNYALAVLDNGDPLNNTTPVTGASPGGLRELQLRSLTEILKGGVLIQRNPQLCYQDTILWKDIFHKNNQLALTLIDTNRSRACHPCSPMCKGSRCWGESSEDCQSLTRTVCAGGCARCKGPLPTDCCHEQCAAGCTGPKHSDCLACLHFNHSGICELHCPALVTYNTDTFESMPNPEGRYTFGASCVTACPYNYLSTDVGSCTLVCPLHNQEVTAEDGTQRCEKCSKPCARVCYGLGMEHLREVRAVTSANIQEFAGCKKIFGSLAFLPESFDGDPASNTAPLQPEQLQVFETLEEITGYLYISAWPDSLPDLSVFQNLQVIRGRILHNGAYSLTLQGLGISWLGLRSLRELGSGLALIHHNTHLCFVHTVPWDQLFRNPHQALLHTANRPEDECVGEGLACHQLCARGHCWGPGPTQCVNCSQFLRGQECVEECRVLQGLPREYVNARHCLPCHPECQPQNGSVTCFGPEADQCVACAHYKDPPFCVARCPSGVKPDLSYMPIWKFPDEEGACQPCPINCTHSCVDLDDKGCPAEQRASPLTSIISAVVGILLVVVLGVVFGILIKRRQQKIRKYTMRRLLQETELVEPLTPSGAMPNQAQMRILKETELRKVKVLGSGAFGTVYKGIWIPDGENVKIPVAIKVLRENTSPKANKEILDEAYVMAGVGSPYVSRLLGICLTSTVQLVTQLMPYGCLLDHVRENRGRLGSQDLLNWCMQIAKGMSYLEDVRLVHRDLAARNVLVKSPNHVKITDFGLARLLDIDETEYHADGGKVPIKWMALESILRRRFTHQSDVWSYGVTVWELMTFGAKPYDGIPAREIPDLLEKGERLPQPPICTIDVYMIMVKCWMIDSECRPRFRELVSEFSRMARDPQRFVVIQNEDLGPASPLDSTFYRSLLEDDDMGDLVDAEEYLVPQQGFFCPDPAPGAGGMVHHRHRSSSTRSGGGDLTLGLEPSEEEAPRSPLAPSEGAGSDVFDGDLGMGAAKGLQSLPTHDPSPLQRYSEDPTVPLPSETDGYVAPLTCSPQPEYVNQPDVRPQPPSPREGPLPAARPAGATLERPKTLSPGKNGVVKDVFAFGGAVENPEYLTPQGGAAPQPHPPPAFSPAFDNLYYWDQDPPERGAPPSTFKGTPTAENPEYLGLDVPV
In short: (§2)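 HTRF kinEASE-TK with biotinylated TK substrate in HEPES pH 7.0 buffer containing MnCl2, MgCl2 and DTT; ErbB2 at 0.06 ng/μl with 4 μM ATP, EGFR at 0.06 units/μl with 1.65 μM ATP, 30 min at room temperature after 5 min enzyme/substrate–compound preincubation. Ten-point 3-fold dilutions; Eu antibody/SA-XL665 detection, 665/620 ratio.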

EGFR kinase = EGFR kinase (Homo sapiens, UniProt P00533); assay: Enzymatic experiment on EGFR (HTRF kinEASE-TK); assay type: biochemical; details: ATP 1.65 μM; read-out: Kinase IC50 (nM) in vitro EGFR
Sequence of EGFR kinase (P00533 25-1210): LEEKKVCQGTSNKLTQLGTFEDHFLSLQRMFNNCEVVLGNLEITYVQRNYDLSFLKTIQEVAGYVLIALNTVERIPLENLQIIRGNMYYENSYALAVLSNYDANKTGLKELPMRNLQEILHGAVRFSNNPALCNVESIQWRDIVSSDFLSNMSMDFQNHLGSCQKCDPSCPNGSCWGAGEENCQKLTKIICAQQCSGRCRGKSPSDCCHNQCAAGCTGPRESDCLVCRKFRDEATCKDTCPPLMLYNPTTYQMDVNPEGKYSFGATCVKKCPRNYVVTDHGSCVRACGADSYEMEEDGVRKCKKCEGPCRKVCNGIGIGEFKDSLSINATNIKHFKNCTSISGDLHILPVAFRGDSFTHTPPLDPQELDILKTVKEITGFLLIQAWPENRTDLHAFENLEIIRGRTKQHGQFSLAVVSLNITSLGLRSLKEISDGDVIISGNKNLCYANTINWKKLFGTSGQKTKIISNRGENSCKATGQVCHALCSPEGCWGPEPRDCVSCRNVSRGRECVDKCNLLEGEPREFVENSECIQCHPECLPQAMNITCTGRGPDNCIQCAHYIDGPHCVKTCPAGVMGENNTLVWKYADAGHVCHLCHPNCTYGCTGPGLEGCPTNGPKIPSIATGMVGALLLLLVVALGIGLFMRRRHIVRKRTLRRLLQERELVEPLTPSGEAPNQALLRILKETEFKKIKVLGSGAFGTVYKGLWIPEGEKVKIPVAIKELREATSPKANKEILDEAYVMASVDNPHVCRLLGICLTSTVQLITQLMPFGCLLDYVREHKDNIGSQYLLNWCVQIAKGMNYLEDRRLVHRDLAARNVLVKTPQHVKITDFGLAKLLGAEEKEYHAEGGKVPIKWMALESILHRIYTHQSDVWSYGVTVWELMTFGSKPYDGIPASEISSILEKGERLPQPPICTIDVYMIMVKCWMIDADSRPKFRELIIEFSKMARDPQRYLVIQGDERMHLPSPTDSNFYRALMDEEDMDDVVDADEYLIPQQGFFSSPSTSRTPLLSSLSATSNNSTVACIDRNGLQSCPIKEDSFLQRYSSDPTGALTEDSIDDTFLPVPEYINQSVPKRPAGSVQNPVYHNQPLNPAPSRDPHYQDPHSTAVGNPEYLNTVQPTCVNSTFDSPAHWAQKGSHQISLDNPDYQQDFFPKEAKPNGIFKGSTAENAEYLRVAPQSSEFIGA
In short: as §2

Structure (SMILES)	IC50 (BT-474)	IC50 (ErbB2 kinase)	IC50 (EGFR kinase)	IC50 (N87)
C=CC(=O)N1CCC(Oc2cc3c(Nc4ccc(Oc5cc6nncn6cn5)c(F)c4)ncnc3cc2OC)CC1 [Embodiment 88, 1-(4-((4-((4-([1,2,4]triazolo[4,3-c]pyrimidin-7-yloxy)-3-fluorophenyl)amino)-7-methoxyquinazolin-6-yl)oxy)piperidin-1-yl)prop-2-en-1-one]	6.3 nM	1.13 nM	1.9 nM	5.2 nM
Cc1cc(Nc2ncnc3ccc(NC4=NCC(C)(C)O4)cc23)ccc1Oc1cc2nncn2cn1 [Embodiment 90, N^4-(4-([1,2,4]triazolo[4,3-c]pyrimidin-7-yloxy)-3-methylphenyl)-N^6-(5,5-dimethyl-4,5-dihydrooxazol-2-yl)quinazolin-4,6-diamine]	185 nM	11.1 nM	494 nM	271 nM
Cc1cc(Nc2ncnc3ccc(NC4=N[C@@H](C(C)C)CO4)cc23)ccc1Oc1cc2nncn2cn1 [Embodiment 91, (S)—N^4-(4-([1,2,4]triazolo[4,3-c]pyrimidin-7-yloxy)-3-methylphenyl)-N^6-(4-isopropyl-4,5-dihydrooxazol-2-yl)quinazolin-4,6-diamine]	38.8 nM	2.76 nM	26.9 nM	76.8 nM
C=CC(=O)N1CCC(Oc2cc3c(Nc4ccc(Oc5cc6nncn6cn5)c(Cl)c4)ncnc3cc2OC)CC1 [Embodiment 92, 1-(4-((4-((4-([1,2,4]triazolo[4,3-c]pyrimidin-7-yloxy)-3-chlorophenyl)amino)-7-methoxyquinazolin-6-yl)oxy)piperidin-1-yl)prop-2-en-1-one]	2.2 nM	0.44 nM	0.7 nM	3.4 nM
Cc1cc(Nc2ncnc3ccc(NC(=O)/C=C/[C@@H]4CCCN4C)cc23)ccc1Oc1cc2nncn2cn1 [Embodiment 97, (S,E)-N-(4-((4-([1,2,4]triazolo[4,3-c]pyrimidin-7-yloxy)-3-methylphenyl)amino)quinazolin-6-yl)-3-(1-methylpyrrolidin-2-yl)acrylamide]	6.4 nM	4.84 nM	11.4 nM	10 nM
CN1CCC[C@@H]1/C=C/C(=O)Nc1ccc2ncnc(Nc3ccc(Oc4cc5nncn5cn4)c(Cl)c3)c2c1 [Embodiment 98, (R,E)-N-(4-((4-([1,2,4]triazolo[4,3-c]pyrimidin-7-yloxy)-3-chlorophenyl)amino)quinazolin-6-yl)-3-(1-methylpyrrolidin-2-yl)acrylamide]	3 nM	1.78 nM	1.6 nM	2.5 nM
Cc1cc(Nc2ncnc3ccc(-c4cccc(N5CCS(=O)(=O)CC5)c4)cc23)ccc1Oc1cc2nncn2cn1 [Embodiment 116, 4-(3-(4-((4-([1,2,4]triazolo[4,3-c]pyrimidin-7-yloxy)-3-methylphenyl)amino)quinazolin-6-yl)phenyl)thiomorpholin-1,1-dioxide]	12.6 nM	1.3 nM	11.7 nM	18.3 nM
C=CC(=O)N1CC=C(c2ccc3ncnc(Nc4ccc(Oc5cc6nncn6cn5)c(C)c4)c3c2)CC1 [Embodiment 117, 1-(4-(4-((4-([1,2,4]triazolo[4,3-c]pyrimidin-7-yloxy)-3-methylphenyl)amino)quinazolin-6-yl)-5,6-dihydropyridin-1(2H)-yl)prop-2-en-1-one]	3.1 nM	3.6 nM	100 nM	2.1 nM
C=CC(=O)N1CCC=C(c2ccc3ncnc(Nc4ccc(Oc5cc6nncn6cn5)c(C)c4)c3c2)C1 [Embodiment 120, 1-(5-(4-((4-([1,2,4]triazolo[4,3-c]pyrimidin-7-yloxy)-3-methylphenyl)amino)quinazolin-6-yl)-3,6-dihydropyridin-1(2H)-yl)prop-2-en-1-one]	5.85 nM	1.31 nM	7.41 nM	2.68 nM
Cc1cc(Nc2ncnc3ccc(/C=C/CNC(=O)C4CC4)cc23)ccc1Oc1cc2nncn2cn1 [Embodiment 122, (E)-N-(3-(4-((4-([1,2,4]triazolo[4,3-c]pyrimidin-7-yloxy)-3-methylphenyl)amino)quinazolin-6-yl)allyl)cyclopropylcarboxamide]	37 nM	2.7 nM	87.2 nM	92 nM

More lines, main results first:

IC50 (BT-474)	IC50 (ErbB2 kinase)	IC50 (EGFR kinase)	Structure (SMILES)	IC50 (N87)
7.1 nM	1.1 nM	2.2 nM	Cc1cc(Nc2ncnc3ccc(NC(=O)CCl)cc23)ccc1Oc1cc2nncn2cn1 [Embodiment 82, N-(4-((4-([1,2,4]triazolo[4,3-c]pyrimidin-7-yloxy)-3-methylphenyl)amino)quinazolin-6-yl)-2-chloroacetamide]	5 nM
72.7 nM	2.3 nM	36.4 nM	Cc1cc(Nc2ncnc3ccc(-n4cccc4)cc23)ccc1Oc1cc2nncn2cn1 [Embodiment 83, N-(4-([1,2,4]triazolo[4,3-c]pyrimidin-7-yloxy)-3-methylphenyl)-6-(1H-pyrrol-1-yl)-quinazolin-4-amine]	104 nM
21.8 nM	3 nM	89.4 nM	C=C(C)C(=O)Nc1ccc2ncnc(Nc3ccc(Oc4cc5nncn5cn4)c(C)c3)c2c1 [Embodiment 84, N-(4-((4-([1,2,4]triazolo[4,3-c]pyrimidin-7-yloxy)-3-methylphenyl)amino)quinazolin-6-yl)-methacrylamide]	31.1 nM
33.8 nM	3.1 nM	7.7 nM	Cc1cc(Nc2ncnc3ccc(-n4ccc(CNCCS(C)(=O)=O)c4)cc23)ccc1Oc1cc2nncn2cn1 [Embodiment 86, N-(4-([1,2,4]triazolo[4,3-c]pyrimidin-7-yloxy)-3-methylphenyl)-6-(3-(((2-(methylsulfonyl)ethyl)amino)methyl)-1H-pyrrol-1-yl)quinazolin-4-amine]	160 nM
15.3 nM	1.9 nM	6.5 nM	Cc1cc(Nc2ncnc3ccc(NC4=NC5(CCCC5)CO4)cc23)ccc1Oc1cc2nncn2cn1 [Embodiment 87]	25.3 nM
4.8 nM	2.99 nM	3.16 nM	Cc1cc(Nc2ncnc3ccc(NC(=O)/C=C/[C@H]4CCCN4C)cc23)ccc1Oc1cc2nncn2cn1 [Embodiment 94, (R,E)-N-(4-((4-([1,2,4]triazolo[4,3-c]pyrimidin-7-yloxy)-3-methylphenyl)amino)quinazolin-6-yl)-3-(1-methylpyrrolidin-2-yl)acrylamide]	4.7 nM
55.9 nM	3.43 nM	3.79 nM	Cc1cc(Nc2ncnc3ccc(NC(=O)/C=C/[C@@H]4CCCN4)cc23)ccc1Oc1cc2nncn2cn1 [Embodiment 96, (S,E)-N-(4-((4-([1,2,4]triazolo[4,3-c]pyrimidin-7-yloxy)-3-methylphenyl)amino)quinazolin-6-yl)-3-(pyrrolidin-2-yl)acrylamide]	93.5 nM
22.9 nM	1.2 nM	26 nM	Cc1cc(Nc2ncnc3ccc(-c4ccc(CN(C)CCS(C)(=O)=O)o4)cc23)ccc1Oc1cc2nncn2cn1 [Embodiment 105]	17.3 nM
264 nM	21.5 nM	445 nM	Cc1cc(Nc2ncnc3ccc(NC(=S)NC(C)(C)CO)cc23)ccc1Oc1cc2nncn2cn1 [Embodiment 106, 1-(4-((4-([1,2,4]triazolo[4,3-c]pyrimidin-7-yloxy)-3-methylphenyl)amino)quinazolin-6-yl)-3-(1-hydroxy-2-methylpropan-2-yl)thiourea]	933 nM
58.6 nM	5.91 nM	75.9 nM	Cc1cc(Nc2ncnc3ccc(-c4cccc(NCCS(C)(=O)=O)c4)cc23)ccc1Oc1cc2nncn2cn1 [Embodiment 115]	84 nM
73.4 nM	8.59 nM	28.4 nM	Cc1cc(Nc2ncnc3ccc(-c4ccc(N)nn4)cc23)ccc1Oc1cc2nncn2cn1 [Embodiment 118, N-(4-([1,2,4]triazolo[4,3-c]pyrimidin-7-yloxy)-3-methylphenyl)-6-(6-aminopyridazin-3-yl)quinazolin-4-amine]	389 nM
219 nM	4.4 nM	32.8 nM	Cc1cc(Nc2ncnc3ccc(-c4ccc(CNCCS(C)(=O)=O)n4C)cc23)ccc1Oc1cc2nncn2cn1 [Embodiment 123, N-(4-([1,2,4]triazolo[4,3-c]pyrimidin-7-yloxy)-3-methylphenyl)-6-(1-methyl-5-(((2-(methylsulfonyl)ethyl)amino)methyl)-1H-pyrrol-2-yl)quinazolin-4-amine]	429 nM
9.5 nM	2.8 nM	2.3 nM	C=CC(=O)Nc1ccc2ncnc(Nc3ccc(Oc4cc5nncn5cn4)c(C)c3)c2c1 [Embodiment 124, N-(4-((4-([1,2,4]triazolo[4,3-c]pyrimidin-7-yloxy)-3-methylphenyl)amino)quinazolin-6-yl) acrylamide]	11.4 nM
13.6 nM	3.4 nM	14.7 nM	C=C(F)C(=O)Nc1cc2c(Nc3ccc(Oc4cc5nncn5cn4)c(C)c3)ncnc2cc1F [Embodiment 125, N-(4-((4-([1,2,4]triazolo[4,3-c]pyrimidin-7-yloxy)-3-methylphenyl)amino)-7-fluoroquinolin-6-yl)-2-fluoroacryamide]	6.8 nM
